Reference: PMC12140300, “Development of Carbon‐11 Labeled Pyrimidine Derivatives as Novel Positron Emission Tomography (PET) Agents Enabling Brain Sigma‐1 Receptor Imaging” (Advanced Science, 2025)

Test system: σ1R
Test: NHP PET/MR imaging with kinetic modelling, baseline and self-blocking
Type: in vivo
Details: for VT, Logan graphical method [T* = 40 min] / VT, Two tissue compartment model [2TCM] / VT, One tissue compartment model [1TCM]: male NHP brain
Text: Next, we conducted PET/MR imaging studies using [^11C]CNY‐01 in non‐human primates (NHP) to evaluate its safety and translational potential in large animals further. A 90‐minute dynamic PET scan with [^11C]CNY‐01 focusing on the head of a male rhesus monkey. We performed a full kinetic analysis with one‐ and two‐tissue compartment models (1TCM and 2TCM), as well as logan graphical analysis (LGA), using metabolite‐corrected arterial input function (AIF), similar to previous studies,^[ [44], [45] ^] to determine which model best suit kinetics of [^11C]CNY‐01. In most brain regions, 2TCM provided a better fit than 1TCM, as indicated by the Akaike information criterion (AIC) and model selection criterion (MSC) (Table 1). […] To test whether non‐parametric graphical approaches can be used for [^11C]CNY‐01, we performed LGA with an assumption of steady‐state time (T*) of 40 mins (Table 1). […] For voxel‐wise estimation of VT across the whole brain, we then used LGA (Figure 4A).
We also performed a self‐blocking scan for [^11C]CNY‐01, administering 0.5 mg kg^−1 of unlabeled CNY‐01 10 min before the radiotracer. The metabolism of the radiotracer in the blocking scan was similar to that of the baseline (Figure S6, Supporting Information). The radioactivity concentration was lower in arterial blood samples in the blocking scan compared to the baseline, while brain uptake was higher in the blocking scan (Figure S6, Supporting Information). […] The variation of the radiotracer plasma protein binding (fp) between baseline and blocking scan may explain our observation in a way similar to that of the previous study.^[ [46] ^] Nonetheless, due to this study's lack of fp data, the exact explanation for our observation remains to be determined further.
The PET/MR imaging protocol in non‐human primates (NHP) followed our previous work.^[ [55], [56] ^] A male rhesus macaque (8.55 kg) was anesthetized with an intramuscular injection of xylazine (0.5–2.0 mg kg^−1) and ketamine (10 mg kg^−1), followed by endotracheal intubation. V‐ and A‐lines were inserted, and anesthesia was maintained using isoflurane. [^11C] CNY‐01 was administered after antecubital catheterization, with an arterial line prepared for radiometabolite analysis. In the self‐blocking scan, the same animal (6.80 kg) was scanned with a 10‐min pre‐treatment of 0.5 mg kg^−1 unlabeled CNY‐01. PET/MR imaging data were acquired using a Siemens TIM‐Trio scanner (3T) equipped with a Siemens BrainPET insert module and an in‐house‐built 8‐channel head coil. The dynamic scan began, followed by administration of [^11C] CNY‐01 (5.1 mCi). The list mode data were reconstructed using the 3D ordinary Poisson expectation‐maximization algorithm (16 subsets and 6 iterations) with detector efficiency, decay, dead time, random coincidences, scatter, and attenuation corrections with gradually increasing time frams. All images were reconstructed into 153 slices with 256 × 256 pixels and 1.25‐mm isotropic voxel size. High‐resolution structural MRI scans were acquired by using a multi‐echo magnetization‐prepared rapid gradient echo (ME‐MPRAGE) sequence with parameters as follows: TR = 2400 ms; TE1/TE2/TE3/TE4 = 1.57/3.29/5.01/6.73 ms; inversion time = 1200 ms; flip angle = 9°; spatial resolution = 1 mm isotropic.
For macaque brain PET/MR imaging analysis, we applied the INIA19 Template^[ [57] ^] and NeuroMaps Atlas in accordance with our prior work.^[ [58] ^] In brief, reconstructed PET images were registered to the INIA19 Primate Brain Atlas^[ [57] ^] with the following processing steps^[ [59] ^]: The high‐resolution T1‐weighted MR image, co‐registered with the PET image, was first affine‐registered to the INIA19 atlas. By using the same transformation, dynamic PET data was registered to the atlas. A spatial smoothing with a 6‐mm FWHM Gaussian kernel was applied to PET images. Twenty ROIs determined in the INIA19 atlas were used to derive regional TACs. […]

[1] = ACC, 10-min pretreatment of unlabeled CNY-01 (0.5 mg kg^−1)
[2] = Amygdala, 10-min pretreatment of unlabeled CNY-01 (0.5 mg kg^−1)
[3] = CBL, 10-min pretreatment of unlabeled CNY-01 (0.5 mg kg^−1)
[4] = Caudate, 10-min pretreatment of unlabeled CNY-01 (0.5 mg kg^−1)
[5] = Globus-pallidus, 10-min pretreatment of unlabeled CNY-01 (0.5 mg kg^−1)
[6] = Hippocampus, 10-min pretreatment of unlabeled CNY-01 (0.5 mg kg^−1)
[7] = Hypothalamus, 10-min pretreatment of unlabeled CNY-01 (0.5 mg kg^−1)
[8] = Ifc, 10-min pretreatment of unlabeled CNY-01 (0.5 mg kg^−1)
[9] = Insula, 10-min pretreatment of unlabeled CNY-01 (0.5 mg kg^−1)
[10] = Midbrain, 10-min pretreatment of unlabeled CNY-01 (0.5 mg kg^−1)
[11] = Motor, 10-min pretreatment of unlabeled CNY-01 (0.5 mg kg^−1)

Cc1nc(-c2ccc(O[11CH3])cc2)nc(OCCCN2CCCCC2)c1Cl [[^11C]CNY-01]
VT in blocking scan compared to baseline (0.5 mg kg^−1 unlabeled CNY-01 10 min before the radiotracer, NHP): higher VT across the brain
VT, Logan graphical method [T* = 40 min] [1]: 29.37 ml/cm^3
VT, Two tissue compartment model [2TCM] [1]: 25.84 ml/cm^3
VT, Logan graphical method [T* = 40 min] (ACC, baseline): 13.32 mL cm^−3
VT, One tissue compartment model [1TCM] (ACC, baseline): 9.76 mL cm^−3
VT, Two tissue compartment model [2TCM] (ACC, baseline): 15.87 mL cm^−3
VT, Logan graphical method [T* = 40 min] [2]: 34.47 ml/cm^3
VT, Two tissue compartment model [2TCM] [2]: 29.18 ml/cm^3
VT, Logan graphical method [T* = 40 min] (Amygdala, baseline): 14.75 mL cm^−3
VT, One tissue compartment model [1TCM] (Amygdala, baseline): 10.83 mL cm^−3
VT, Two tissue compartment model [2TCM] (Amygdala, baseline): 13.78 mL cm^−3
VT, Logan graphical method [T* = 40 min] [3]: 21.96 ml/cm^3
VT, Two tissue compartment model [2TCM] [3]: 18.25 ml/cm^3
VT, Logan graphical method [T* = 40 min] (CBL, baseline): 11.65 mL cm^−3
VT, One tissue compartment model [1TCM] (CBL, baseline): 8.96 mL cm^−3
VT, Two tissue compartment model [2TCM] (CBL, baseline): 11.68 mL cm^−3
VT, Logan graphical method [T* = 40 min] [4]: 28.10 ml/cm^3
VT, Two tissue compartment model [2TCM] [4]: 24.46 ml/cm^3
VT, Logan graphical method [T* = 40 min] (Caudate, baseline): 12.71 mL cm^−3
VT, One tissue compartment model [1TCM] (Caudate, baseline): 9.58 mL cm^−3
VT, Two tissue compartment model [2TCM] (Caudate, baseline): 14.24 mL cm^−3
VT, Logan graphical method [T* = 40 min] [5]: 33.31 ml/cm^3
VT, Two tissue compartment model [2TCM] [5]: 26.67 ml/cm^3
VT, Logan graphical method [T* = 40 min] (Globus-pallidus, baseline): 15.11 mL cm^−3
VT, One tissue compartment model [1TCM] (Globus-pallidus, baseline): 11.32 mL cm^−3
VT, Two tissue compartment model [2TCM] (Globus-pallidus, baseline): 14.90 mL cm^−3
VT, Logan graphical method [T* = 40 min] [6]: 24.15 ml/cm^3
VT, Two tissue compartment model [2TCM] [6]: 18.46 ml/cm^3
VT, Logan graphical method [T* = 40 min] (Hippocampus, baseline): 10.31 mL cm^−3
VT, One tissue compartment model [1TCM] (Hippocampus, baseline): 8.04 mL cm^−3
VT, Two tissue compartment model [2TCM] (Hippocampus, baseline): 10.36 mL cm^−3
VT, Logan graphical method [T* = 40 min] [7]: 24.54 ml/cm^3
VT, Two tissue compartment model [2TCM] [7]: 18.97 ml/cm^3
VT, Logan graphical method [T* = 40 min] (Hypothalamus, baseline): 11.42 mL cm^−3
VT, One tissue compartment model [1TCM] (Hypothalamus, baseline): 8.36 mL cm^−3
VT, Two tissue compartment model [2TCM] (Hypothalamus, baseline): 10.60 mL cm^−3
VT, Logan graphical method [T* = 40 min] [8]: 20.73 ml/cm^3
VT, Two tissue compartment model [2TCM] [8]: 18.09 ml/cm^3
VT, Logan graphical method [T* = 40 min] (Ifc, baseline): 9.62 mL cm^−3
VT, One tissue compartment model [1TCM] (Ifc, baseline): 7.36 mL cm^−3
VT, Two tissue compartment model [2TCM] (Ifc, baseline): 10.89 mL cm^−3
VT, Logan graphical method [T* = 40 min] [9]: 31.86 ml/cm^3
VT, Two tissue compartment model [2TCM] [9]: 26.77 ml/cm^3
VT, Logan graphical method [T* = 40 min] (Insula, baseline): 14.70 mL cm^−3
VT, One tissue compartment model [1TCM] (Insula, baseline): 11.17 mL cm^−3
VT, Two tissue compartment model [2TCM] (Insula, baseline): 13.96 mL cm^−3
VT, Logan graphical method [T* = 40 min] [10]: 34.11 ml/cm^3
VT, Two tissue compartment model [2TCM] [10]: 25.70 ml/cm^3
VT, Logan graphical method [T* = 40 min] (Midbrain, baseline): 13.39 mL cm^−3
VT, One tissue compartment model [1TCM] (Midbrain, baseline): 11.03 mL cm^−3
VT, Two tissue compartment model [2TCM] (Midbrain, baseline): 14.71 mL cm^−3
VT, Logan graphical method [T* = 40 min] [11]: 21.53 ml/cm^3
VT, Two tissue compartment model [2TCM] [11]: 16.66 ml/cm^3
VT, Logan graphical method [T* = 40 min] (Motor, baseline): 9.39 mL cm^−3
